In paper PMC8895762 (BMC Complementary Medicine and Therapies, 2022):
Where two headings read alike, the source gives them in different places.

Assays:
[1] = CCK-8 cell viability assay; type: cell-based, Murine; conditions: mouse
Protocol: (§1) Murine RAW 264.7 macrophages were purchased from the American Tissue Culture Collection (Manassas, USA). These cells were incubated in DMEM supplemented with 10% FBS, 100 U/mL penicillin and 100 U/mL streptomycin in humidified 5% carbon dioxide (CO2) at 37 °C [16, 17].
(§2) The effects of 19 constituents on the viability of RAW 264.7 macrophages were assessed by CCK-8 assay. Prior to treatment, RAW 264.7 macrophages (5 × 10^3 cells/well) were seeded into 96-well plates and incubated for 24 h. All cultured cells were treated with or without 19 compounds at a concentration of 40 μM at 37 °C for 24 h. After incubation, 10 μL of CCK-8 solution was added to each well and incubated at 37 °C. After 2 h, the absorbance of each well was measured at 450 nm in a microplate reader. Cell viability was calculated using the following formular:
(§3) Cell viability (%) = Asample/Acontrol × 100, where Asample and Acontrol are the absorbance of cells treated with the compound and untreated cells, respectively. Moreover, the latter is expressed as 100% cell viability.

[2] = system: NO production in LPS-stimulated RAW 264.7 macrophages; test: NO production by the Griess method; type: cell-based, Murine; conditions: LPS 1 μg/mL; for IC50: RAW 264.7 macrophages, mean ± SD, n = 3; for inhibition at 40 µM: RAW264.7, read-out: NO inhibition rate; for inhibition at 40 µM / NO inhibition rate: 40 μM
Protocol: as §1
The effects of 19 constituents on NO production in LPS-induced RAW 264.7 macrophages were determined using the Griess method. Prior to treatment, RAW 264.7 macrophages (5 × 10^3 cells/well) were seeded into 96-well plates and incubated for 24 h. […] After 1 h, cells were incubated with or without LPS at a concentration of 1 μg/mL at 37 °C for 24 h. After incubation, 50 μL of each supernatant solution was collected and mixed with equal volumes of Griess Reagent I and Griess Reagent II, respectively. The absorbance (A) was measured at 540 nm after 10 min of incubation at room temperature. The standard concentration of sodium nitrite was used to calculate the nitrite concentration. Moreover, the NO inhibition rate (%) = (ALPS − ALPS + sample)/(ALPS − Acontrol) × 100, where ALPS, ALPS + sample, and Acontrol are the absorbance of LPS model group, LPS + sample group, and DMEM group, respectively.

[3] = system: TNF-α in LPS-stimulated RAW 264.7 macrophages; test: TNF-α secretion by ELISA; type: cell-based, Murine; conditions: 20 μM, LPS 1 μg/mL, 24 h, compared to the LPS group, p < 0.01
Protocol: (§4) The logarithmic growth phase of RAW 264.7 macrophages was inoculated in 96-well plates at a density of 5 × 10^3 cells/well. After 24 h of incubation, these cells were pretreated with respective concentrations of 20 μM of each compound (1, 4–6, 15 and 17) for 1 h, followed by the addition of LPS (1 μg/mL) for 24 h. Finally, 50 μL of each supernatant solution was taken to measure the concentrations of TNF-α, PGE2, IL-1β and IL-6, using the corresponding commercially available murine ELISA kits in accordance with the manufacturer’s instructions.

[4] = system: PGE2 in LPS-stimulated RAW 264.7 macrophages; test: PGE2 secretion by ELISA; type: cell-based, Murine; conditions: 20 μM, LPS 1 μg/mL, 24 h, compared to the LPS group, p < 0.01
Protocol: as §4

[5] = system: IL-1β in LPS-stimulated RAW 264.7 macrophages; test: IL-1β secretion by ELISA; type: cell-based, Murine; conditions: 20 μM, LPS 1 μg/mL, 24 h, compared to the LPS group, p < 0.01
Protocol: as §4

[6] = system: IL-6 in LPS-stimulated RAW 264.7 macrophages; test: IL-6 secretion by ELISA; type: cell-based, Murine; conditions: 20 μM, LPS 1 μg/mL, 24 h, compared to the LPS group, p < 0.01
Protocol: as §4

[7] = system: phosphorylated NF-κB p65 in LPS-stimulated RAW 264.7 macrophages; test: NF-κB activation by Western blotting; type: cell-based, Murine; conditions: 20 μM, LPS 1 μg/mL, 24 h, compared to the LPS group, p < 0.01
Protocol: RAW 264.7 macrophages were seeded and pretreated with respective concentrations of 20 μM of each compound (1, 4–6, 15 and 17) for 1 h, followed by the addition of LPS (1 μg/mL) for 24 h. Subsequently, the total protein was extracted by resuspending the cells in RIPA lysis buffer. In addition, protein concentrations were measured by a Bicinchoninic acid (BCA) assay kit. Proteins were separated using SDS-PAGE gels and then electroplated onto a PVDF membrane, which was blocked with 5% skim milk for 1 h at room temperature in Tris-buffered saline-Tween (TBST). Membranes were washed three times with TBST and then incubated overnight at 4 °C in diluted (1:1000) primary antibody solution (anti-NF-κB p65 or anti-phosphorylated-NF-κB p65). After washing three times with TBST, the membranes were incubated with a 1:5000 dilution of HRP-conjugated secondary antibody for 1 h at room temperature. The immunoreactive bands were determined by densitometry and quantified using a Bio-Rad auto-developer (Bio-Rad, California, USA). All results are expressed as relative ratios to the reference protein GAPDH [16, 17].

[8] = system: inflammatory cytokines in cells; set-up: method as in PMID 20221843, PMID 12105943, PMID 18448292, PMID 25821492; conditions: cited from earlier work
[9] = system: RAW 264.7 macrophages; test: CCK-8 cell viability assay; type: cell-based, Murine; conditions: 40 μM, 24 h, RAW 264.7 macrophages, mean ± SD, n = 3
Protocol: as §1, §2, §3

| Compound | IC50 ([2]; 24 h) | IC50 ([2]; Mus musculus, RAW264.7, 24 h) | inhibition at 40 µM ([2]; Mus musculus, 24 h) | Cell viability (%) [9] | NO inhibition rate ([2]; 24 h) | other results |
| --- | --- | --- | --- | --- | --- | --- |
| O=c1c(O)c(-c2ccc(O)cc2)oc2cc(O)cc(O)c12 [Compound 1, kaempferol] | 18.4 ± 2.67 µM | ≤ 20 µM | > 50% | – | – | viability at 24 h, 40 µM [1]: 92.4 ± 3.96%; Level of TNF-α [3]: significantly reduced; Level of PGE2 [4]: significantly reduced; Level of IL-1β [5]: significantly reduced; Level of IL-6 [6]: significantly reduced; Phosphorylation of NF-κB p65 levels [7]: significantly lower; Anti-inflammatory effects by suppressing the secretion of inflammatory cytokines [8]: anti-inflammatory effects |
| O=c1c(O[C@@H]2O[C@H](CO)[C@@H](O)[C@H](O)[C@H]2O)c(-c2ccc(O)cc2)oc2cc(O)cc(O)c12 [Compound 2, astragalin] | – | > 40 µM | ≤ 50% | – | – | viability at 24 h, 40 µM ([1]; 40 μM, 24 h, RAW 264.7 macrophages, mean ± SD, n = 3, read-out: Cell viability (%)): 95 ± 1.86%; Anti-inflammatory effects by suppressing the secretion of inflammatory cytokines [8]: anti-inflammatory effects |
| O=c1c(O)c(-c2ccc(O)cc2)oc2cc(O[C@@H]3O[C@H](CO)[C@@H](O)[C@H](O)[C@H]3O)cc(O)c12 [Compound 3, kaempferol-7-O-β-D-glucopyranoside] | – | > 40 µM | ≤ 50% | – | – | viability at 24 h, 40 µM [1]: 91.1 ± 5.28% |
| O=c1c(O[C@@H]2O[C@H](CO)[C@@H](O)[C@H](O)[C@H]2O)c(-c2ccc(O)cc2)oc2cc(O[C@@H]3O[C@H](CO)[C@@H](O)[C@H](O)[C@H]3O)cc(O)c12 [Compound 4, kaempferol-3,7-di-O-β-D-glucopyranoside] | – | 12.2 ± 1.18 µM | > 50% | – | – | viability at 24 h, 40 µM [1]: 93.4 ± 6.34% |
| O=c1c(O[C@@H]2O[C@H](CO)[C@@H](O)[C@H](O)[C@H]2O[C@@H]2O[C@H](CO)[C@@H](O)[C@H](O)[C@H]2O)c(-c2ccc(O)cc2)oc2cc(O)cc(O)c12 [Compound 5, kaempferol-3-O-sophoroside] | 13.1 ± 1.61 µM | – | – | 93.48 ± 5.33% | – | – |
| COc1cc(O)c2c(=O)c(O[C@@H]3O[C@H](CO)[C@@H](O)[C@H](O)[C@H]3O[C@@H]3O[C@H](CO)[C@@H](O)[C@H](O)[C@H]3O)c(-c3ccc(O)cc3)oc2c1 [Compound 6, plantanone A] | 12.6 ± 0.76 µM | – | – | 96.89 ± 1.04% | – | – |
| O=c1c(O[C@@H]2O[C@H](CO)[C@@H](O)[C@H](O)[C@H]2O[C@@H]2O[C@H](CO)[C@@H](O)[C@H](O)[C@H]2O)c(-c2ccc(O)cc2)oc2cc(O[C@@H]3O[C@H](CO)[C@@H](O)[C@H](O)[C@H]3O)cc(O)c12 [Compound 7, kaempferol-3-O-β-D-[β-D-glucopyranosyl-(1 → 2)-glucopyranoside]-7-O-β-D-glucopyranoside] | 26.5 ± 1.53 µM | – | – | 94.03 ± 4.52% | – | – |
| C[C@@H]1O[C@@H](OC[C@H]2O[C@@H](Oc3c(-c4ccc(O)cc4)oc4cc(O[C@@H]5O[C@H](CO)[C@@H](O)[C@H](O)[C@H]5O)cc(O)c4c3=O)[C@H](O)[C@@H](O)[C@@H]2O)[C@H](O)[C@H](O)[C@H]1O [Compound 8, kaempferol-3-O-rutinoside-7-O-glucopyranoside] | > 40 µM | – | – | 95.48 ± 3.54% | – | – |
| C[C@@H]1O[C@@H](OC[C@H]2O[C@@H](O[C@H]3[C@H](Oc4c(-c5ccc(O)cc5)oc5cc(O)cc(O)c5c4=O)O[C@H](CO)[C@@H](O)[C@@H]3O)[C@H](O)[C@@H](O)[C@@H]2O)[C@H](O)[C@H](O)[C@H]1O [Compound 9, kaempferol-3-O-α-L-rhamnopyranosyl-(1 → 6)-β-D-glucopyranosyl-(1 → 2)-β-D-glucopyranoside] | – | > 40 µM | ≤ 50% | – | – | viability at 24 h, 40 µM [1]: 90.7 ± 3.71% |
| C[C@@H]1O[C@@H](OC[C@H]2O[C@@H](Oc3c(-c4ccc(O)cc4)oc4cc(O)cc(O)c4c3=O)[C@H](O[C@@H]3O[C@H](CO)[C@@H](O)[C@H](O)[C@H]3O)[C@@H](O)[C@@H]2O)[C@H](O)[C@H](O)[C@H]1O [Compound 10, kaempferol-3-O-β-D-glucopyranosyl-(1 → 2)-[α-L-rhamnopyranosyl-(1 → 6)]-β-D-glucopyranoside] | – | > 40 µM | ≤ 50% | – | – | viability at 24 h, 40 µM [1]: 93.8 ± 5.06% |
| OC[C@H]1O[C@@H](OCCc2ccccc2)[C@H](O)[C@@H](O)[C@@H]1O [Compound 17, phenethyl-O-β-D-glucopyranoside] | 19.9 ± 2.01 µM | – | – | 92.21 ± 3.48% | greater than 50% | Level of TNF-α [3]: significantly reduced; Level of PGE2 [4]: significantly reduced; Level of IL-1β [5]: significantly reduced; Level of IL-6 [6]: significantly reduced; Phosphorylation of NF-κB p65 levels [7]: significantly lower |
| OC[C@H]1O[C@@H](OC[C@H]2O[C@@H](OCCc3ccccc3)[C@H](O)[C@@H](O)[C@@H]2O)[C@H](O)[C@@H](O)[C@@H]1O [Compound 18, phenethanol-β-gentiobioside] | > 40 µM | – | – | 92.51 ± 5.62% | ≤ 50% | – |
| C[C@@H]1O[C@@H](OC[C@H]2O[C@@H](OCCc3ccccc3)[C@H](O)[C@@H](O)[C@@H]2O)[C@H](O)[C@H](O)[C@H]1O [Compound 19, phenethyl-O-rutinoside] | > 40 µM | – | – | 92.30 ± 9.38% | ≤ 50% | – |
| hostaflavanone A [Compound 16] | > 40 µM | – | – | 92.56 ± 1.97% | ≤ 50% | – |
| kaempferol-3-O-rutinoside [Compound 11] | 31.2 ± 1.09 µM | – | – | – | greater than 50% | Anti-inflammatory effects by suppressing the secretion of inflammatory cytokines [8]: anti-inflammatory effects |
| plantanone B [Compound 12] | > 40 µM | – | – | 91.93 ± 8.04% | ≤ 50% | – |
| plantanone D [Compound 13] | 36.1 ± 3.77 µM | – | – | 91.84 ± 1.11% | – | – |
